In the NIST ThermoML archive (doi:10.1021/je800150h):
Numbers after ± are expanded uncertainties.

Experiment: mn = molality of the nth substance listed, in mol/kg
Conditions: 101 kPa, Liquid; for electrical conductivity: CyberScan CON500 conductivity meter

[Cl-].[Li+] [lithium chloride] + CCO
Conditions | electrical conductivity [S/m] | mass density [kg/m3] | viscosity [mPa·s]
268.1 K, m1 = 0.196 | 0.117 ± 0.0094 | 810.9 ± 3.8 | 2.208 ± 0.1
268.1 K, m1 = 0.391 | 0.197 ± 0.016 | 817.9 ± 3.8 | 2.546 ± 0.12
268.1 K, m1 = 0.782 | 0.269 ± 0.021 | 828.4 ± 3.9 | 3.283 ± 0.15
268.1 K, m1 = 1.173 | 0.3 ± 0.024 | 838.1 ± 3.9 | 4.167 ± 0.19
268.1 K, m1 = 1.76 | 0.305 ± 0.024 | 854.5 ± 4 | 5.819 ± 0.26
268.1 K, m1 = 2.347 | 0.276 ± 0.022 | 869.4 ± 4.1 | 9.082 ± 0.38
268.1 K, m1 = 3.129 | 0.222 ± 0.018 | 887.7 ± 4.2 | 14.96 ± 0.6
268.1 K, m1 = 3.911 | 0.162 ± 0.013 | 907.8 ± 4.3 | 25.44 ± 1
273.1 K, m1 = 0.196 | 0.13 ± 0.01 | 805.1 ± 3.6 | 2.043 ± 0.096
273.1 K, m1 = 0.391 | 0.221 ± 0.018 | 810.6 ± 3.6 | 2.313 ± 0.11
273.1 K, m1 = 0.782 | 0.3 ± 0.024 | 821.3 ± 3.6 | 2.943 ± 0.14
273.1 K, m1 = 1.173 | 0.335 ± 0.027 | 832.5 ± 3.7 | 3.722 ± 0.17
273.1 K, m1 = 1.76 | 0.343 ± 0.027 | 847 ± 3.8 | 5.158 ± 0.23
273.1 K, m1 = 2.347 | 0.315 ± 0.025 | 863.1 ± 3.8 | 7.821 ± 0.33
273.1 K, m1 = 3.129 | 0.258 ± 0.021 | 882.4 ± 3.9 | 12.71 ± 0.51
273.1 K, m1 = 3.911 | 0.198 ± 0.016 | 901.1 ± 4 | 21.16 ± 0.85
278.1 K, m1 = 0.196 | 0.144 ± 0.011 | 803.2 ± 3.4 | 1.863 ± 0.088
278.1 K, m1 = 0.391 | 0.245 ± 0.02 | 810.3 ± 3.4 | 2.099 ± 0.098
278.1 K, m1 = 0.782 | 0.336 ± 0.027 | 821.5 ± 3.5 | 2.638 ± 0.12
278.1 K, m1 = 1.173 | 0.383 ± 0.031 | 834.1 ± 3.5 | 3.323 ± 0.15
278.1 K, m1 = 1.76 | 0.394 ± 0.032 | 845.5 ± 3.6 | 4.57 ± 0.21
278.1 K, m1 = 2.347 | 0.362 ± 0.029 | 864.5 ± 3.7 | 6.735 ± 0.29
278.1 K, m1 = 3.129 | 0.3 ± 0.024 | 883.6 ± 3.8 | 10.78 ± 0.44
278.1 K, m1 = 3.911 | 0.238 ± 0.019 | 902.1 ± 3.9 | 17.62 ± 0.7
283.1 K, m1 = 0.196 | 0.158 ± 0.013 | 796.1 ± 3.1 | 1.695 ± 0.08
283.1 K, m1 = 0.391 | 0.27 ± 0.022 | 800.9 ± 3.2 | 1.908 ± 0.09
283.1 K, m1 = 0.782 | 0.37 ± 0.03 | 812.2 ± 3.2 | 2.366 ± 0.11
283.1 K, m1 = 1.173 | 0.441 ± 0.035 | 823.4 ± 3.3 | 2.959 ± 0.14
283.1 K, m1 = 1.76 | 0.445 ± 0.036 | 837.4 ± 3.3 | 4.045 ± 0.18
283.1 K, m1 = 2.347 | 0.417 ± 0.033 | 854.2 ± 3.4 | 5.802 ± 0.25
283.1 K, m1 = 3.129 | 0.348 ± 0.028 | 875.7 ± 3.5 | 9.203 ± 0.38
283.1 K, m1 = 3.911 | 0.276 ± 0.022 | 891.8 ± 3.6 | 14.68 ± 0.59
288.15 K, m1 = 0.196 | 0.172 ± 0.014 | 789.7 ± 2.9 | 1.495 ± 0.071
288.15 K, m1 = 0.391 | 0.295 ± 0.024 | 795.9 ± 2.9 | 1.715 ± 0.081
288.15 K, m1 = 0.782 | 0.415 ± 0.033 | 807.5 ± 3 | 2.1 ± 0.098
288.15 K, m1 = 1.173 | 0.477 ± 0.038 | 817.5 ± 3.1 | 2.603 ± 0.12
288.15 K, m1 = 1.76 | 0.505 ± 0.04 | 831.6 ± 3.1 | 3.546 ± 0.16
288.15 K, m1 = 2.347 | 0.472 ± 0.038 | 849.1 ± 3.2 | 4.988 ± 0.23
288.15 K, m1 = 3.129 | 0.396 ± 0.032 | 868.4 ± 3.3 | 7.807 ± 0.33
288.15 K, m1 = 3.911 | 0.322 ± 0.026 | 886.9 ± 3.4 | 12.34 ± 0.49
293.15 K, m1 = 0.196 | 0.188 ± 0.015 | 786 ± 2.7 | 1.357 ± 0.065
293.15 K, m1 = 0.391 | 0.325 ± 0.026 | 791.9 ± 2.8 | 1.524 ± 0.073
293.15 K, m1 = 0.782 | 0.459 ± 0.037 | 803.3 ± 2.8 | 1.869 ± 0.088
293.15 K, m1 = 1.173 | 0.533 ± 0.043 | 813.6 ± 2.9 | 2.307 ± 0.11
293.15 K, m1 = 1.76 | 0.565 ± 0.045 | 828.8 ± 2.9 | 3.124 ± 0.14
293.15 K, m1 = 2.347 | 0.529 ± 0.042 | 845.4 ± 3 | 4.395 ± 0.2
293.15 K, m1 = 3.129 | 0.45 ± 0.036 | 864.7 ± 3.1 | 6.784 ± 0.29
293.15 K, m1 = 3.911 | 0.367 ± 0.029 | 883.4 ± 3.2 | 10.56 ± 0.43
298.15 K, m1 = 0.196 | 0.231 ± 0.018 | 782.4 ± 2.9 | 1.218 ± 0.059
298.15 K, m1 = 0.391 | 0.354 ± 0.028 | 788.3 ± 2.9 | 1.412 ± 0.068
298.15 K, m1 = 0.782 | 0.506 ± 0.041 | 799.4 ± 3 | 1.677 ± 0.079
298.15 K, m1 = 1.173 | 0.589 ± 0.047 | 810.3 ± 3 | 2.057 ± 0.096
298.15 K, m1 = 1.76 | 0.629 ± 0.05 | 823.8 ± 3.1 | 2.767 ± 0.13
298.15 K, m1 = 2.347 | 0.6 ± 0.048 | 842.3 ± 3.2 | 3.869 ± 0.18
298.15 K, m1 = 3.129 | 0.514 ± 0.041 | 861.9 ± 3.3 | 5.908 ± 0.26
298.15 K, m1 = 3.911 | 0.427 ± 0.034 | 880.5 ± 3.4 | 9.071 ± 0.37
303.15 K, m1 = 0.196 | 0.25 ± 0.02 | 776.5 ± 3 | 1.089 ± 0.053
303.15 K, m1 = 0.391 | 0.384 ± 0.031 | 782.5 ± 3.1 | 1.306 ± 0.063
303.15 K, m1 = 0.782 | 0.554 ± 0.044 | 794.7 ± 3.1 | 1.527 ± 0.073
303.15 K, m1 = 1.173 | 0.649 ± 0.052 | 804.8 ± 3.2 | 1.846 ± 0.087
303.15 K, m1 = 1.76 | 0.697 ± 0.056 | 819.5 ± 3.3 | 2.469 ± 0.11
303.15 K, m1 = 2.347 | 0.67 ± 0.054 | 837.1 ± 3.4 | 3.436 ± 0.16
303.15 K, m1 = 3.129 | 0.575 ± 0.046 | 856.7 ± 3.5 | 5.171 ± 0.23
303.15 K, m1 = 3.911 | 0.487 ± 0.039 | 875.4 ± 3.6 | 7.924 ± 0.33
308.15 K, m1 = 0.196 | 0.27 ± 0.022 | 773.8 ± 3.2 | 1.006 ± 0.05
308.15 K, m1 = 0.391 | 0.42 ± 0.034 | 779.7 ± 3.2 | 1.129 ± 0.055
308.15 K, m1 = 0.782 | 0.605 ± 0.048 | 791.2 ± 3.3 | 1.369 ± 0.066
308.15 K, m1 = 1.173 | 0.711 ± 0.057 | 802.3 ± 3.4 | 1.671 ± 0.079
308.15 K, m1 = 1.76 | 0.772 ± 0.062 | 816.6 ± 3.4 | 2.223 ± 0.1
308.15 K, m1 = 2.347 | 0.746 ± 0.06 | 835.6 ± 3.5 | 3.077 ± 0.14
308.15 K, m1 = 3.129 | 0.644 ± 0.051 | 854.7 ± 3.6 | 4.578 ± 0.21
308.15 K, m1 = 3.911 | 0.551 ± 0.044 | 873.6 ± 3.7 | 6.884 ± 0.29
313.15 K, m1 = 0.196 | 0.289 ± 0.023 | 773 ± 3.4 | 0.928 ± 0.046
313.15 K, m1 = 0.391 | 0.447 ± 0.036 | 779 ± 3.4 | 1.046 ± 0.052
313.15 K, m1 = 0.782 | 0.652 ± 0.052 | 790.7 ± 3.5 | 1.267 ± 0.061
313.15 K, m1 = 1.173 | 0.773 ± 0.062 | 801.9 ± 3.5 | 1.524 ± 0.073
313.15 K, m1 = 1.76 | 0.852 ± 0.068 | 815.8 ± 3.6 | 2.01 ± 0.094
313.15 K, m1 = 2.347 | 0.822 ± 0.066 | 835.2 ± 3.7 | 2.762 ± 0.13
313.15 K, m1 = 3.129 | 0.712 ± 0.057 | 854.7 ± 3.8 | 4.089 ± 0.18
313.15 K, m1 = 3.911 | 0.624 ± 0.05 | 873.7 ± 3.9 | 6.076 ± 0.26
318.15 K, m1 = 0.196 | 0.309 ± 0.025 | 772.2 ± 3.6 | 0.866 ± 0.044
318.15 K, m1 = 0.391 | 0.48 ± 0.038 | 778.6 ± 3.6 | 0.968 ± 0.048
318.15 K, m1 = 0.782 | 0.708 ± 0.057 | 790.9 ± 3.7 | 1.164 ± 0.057
318.15 K, m1 = 1.173 | 0.843 ± 0.067 | 801.8 ± 3.7 | 1.414 ± 0.068
318.15 K, m1 = 1.76 | 0.931 ± 0.074 | 816.8 ± 3.8 | 1.842 ± 0.087
318.15 K, m1 = 2.347 | 0.91 ± 0.073 | 834.9 ± 3.9 | 2.538 ± 0.12
318.15 K, m1 = 3.129 | 0.792 ± 0.063 | 853.9 ± 4 | 3.735 ± 0.17
318.15 K, m1 = 3.911 | 0.697 ± 0.056 | 874 ± 4.1 | 5.603 ± 0.25
323.15 K, m1 = 0.196 | 0.327 ± 0.026 | 768.7 ± 3.8 | 0.807 ± 0.041
323.15 K, m1 = 0.391 | 0.512 ± 0.041 | 774.3 ± 3.8 | 0.884 ± 0.045
323.15 K, m1 = 0.782 | 0.762 ± 0.061 | 786.1 ± 3.8 | 1.07 ± 0.053
323.15 K, m1 = 1.173 | 0.911 ± 0.073 | 796.6 ± 3.9 | 1.285 ± 0.062
323.15 K, m1 = 1.76 | 1.02 ± 0.082 | 811 ± 4 | 1.677 ± 0.079
323.15 K, m1 = 2.347 | 0.998 ± 0.08 | 830.4 ± 4.1 | 2.335 ± 0.11
323.15 K, m1 = 3.129 | 0.875 ± 0.07 | 851.3 ± 4.2 | 3.437 ± 0.16
323.15 K, m1 = 3.911 | 0.783 ± 0.063 | 869.4 ± 4.3 | 5.009 ± 0.23
